Data on 13 molecules can be found in PubChem BioAssay (NCI).

Among the test systems are OVCAR-8 ovarian; EKVX NSCLC; SNB-19 CNS; NCI-H522 lung; BT-549 breast; SK-MEL-2 melanoma; NCI-H460 lung; SN12C renal; A498 renal; SF-295 CNS.
Assay in all cases: NCI-60 cell line screen, 48 h

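How tested: cells in 96-well plates exposed to compound for 48 hours at five concentrations. GI50 marks 50% less growth. TGI: total growth inhibition.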

In the case of `O=C(O)c1ccccc1Sc1ccc(C=C2NC(=S)N(c3ccccc3)C2=O)s1`, the TGI in the experiment with OVCAR-8 ovarian is above 100 µM; in the experiment with EKVX NSCLC it was above 100 µM; in the experiment on SNB-19 CNS, above 100 µM; with NCI-H522 lung it was 38.9 µM; in the experiment on BT-549 breast it was above 100 µM; in the experiment with SK-MEL-2 melanoma, above 100 µM. Besides, the TGI in the experiment on NCI-H460 lung, in the experiment on SN12C renal, in the experiment on A498 renal and in the experiment with SF-295 CNS was above 100 µM in each case.
Take `Cc1ccc(NC(c2ccccc2)P(=O)(c2ccccc2)c2ccccc2)cc1` (centres undefined): the TGI in the experiment with OVCAR-8 ovarian, with EKVX NSCLC, with SNB-19 CNS, in the experiment on NCI-H522 lung, in the experiment with BT-549 breast and in the experiment on SK-MEL-2 melanoma was above 100 µM each time. The TGI in the experiment on NCI-H460 lung, in the experiment on SN12C renal, in the experiment with A498 renal and with SF-295 CNS was above 100 µM in each case.
As to `CCc1nnc2sc(-c3ccc(-c4ccccc4[N+](=O)[O-])o3)nn12`, the TGI with OVCAR-8 ovarian is above 100 µM; with EKVX NSCLC it was above 100 µM; in the experiment on SNB-19 CNS it was above 100 µM; in the experiment with NCI-H522 lung it was above 100 µM; with BT-549 breast, above 100 µM; in the experiment on SK-MEL-2 melanoma it was 95.7 µM. The TGI in the experiment with NCI-H460 lung, with SN12C renal, in the experiment on A498 renal and with SF-295 CNS was above 100 µM throughout.
On to `O=C1N[C@@H]([C@H]2CC[C@H](Cl)CN2)C(=O)N[C@H]1[C@H]1CC[C@H](Cl)CN1`, for which the TGI in the experiment on OVCAR-8 ovarian worked out at 13.9 µM; with EKVX NSCLC it was 19.2 µM; in the experiment on SNB-19 CNS it was 104 µM; in the experiment with NCI-H522 lung, 4.06 µM; with BT-549 breast, 4.27 µM; in the experiment with SK-MEL-2 melanoma, 7.95 µM. Further, the TGI in the experiment on NCI-H460 lung is 2.88 µM; in the experiment with SN12C renal, 18.9 µM; with A498 renal, 15.6 µM; with SF-295 CNS, 5.36 µM.
Regarding `CN(CCNC(=O)c1nn(C)c2c1Cc1ccccc1-2)CCNC(=O)c1nn(C)c2c1Cc1ccccc1-2`, the TGI in the experiment on OVCAR-8 ovarian turned out to be 42.2 µM; with EKVX NSCLC, 72.8 µM; in the experiment with SNB-19 CNS it was 31.8 µM; in the experiment on NCI-H522 lung it was 30 µM; with BT-549 breast, 30.9 µM; in the experiment with SK-MEL-2 melanoma it was 28.6 µM. Also, the TGI in the experiment with NCI-H460 lung was determined as 31.7 µM; in the experiment with SN12C renal, 30.8 µM; in the experiment on A498 renal it was 28.7 µM; in the experiment with SF-295 CNS, 30.8 µM.
Consider `C[N+]1(CC[N+]2(C)CCCC2c2cccnc2)CCCC1c1cccnc1` (centres undefined), for which the TGI in the experiment on OVCAR-8 ovarian was above 100 µM; in the experiment on EKVX NSCLC, 86.9 µM; in the experiment with SNB-19 CNS it was above 100 µM; in the experiment with NCI-H522 lung, above 100 µM; in the experiment with BT-549 breast, above 100 µM; in the experiment on SK-MEL-2 melanoma, above 100 µM. Further, the TGI with NCI-H460 lung, in the experiment with SN12C renal, with A498 renal and in the experiment on SF-295 CNS was above 100 µM throughout.
Take `Cc1cccc(NC(=S)NNC(=O)c2cc(-c3ccccc3)nc3ccccc23)c1`: the TGI with OVCAR-8 ovarian was above 100 µM; in the experiment with SNB-19 CNS, above 100 µM; in the experiment on NCI-H522 lung, 85.8 µM; in the experiment on BT-549 breast it was above 100 µM; in the experiment with SK-MEL-2 melanoma, 45.8 µM; with NCI-H460 lung it was 85.9 µM. The TGI in the experiment with SN12C renal was above 100 µM; with A498 renal it was 47.6 µM.
As for `c1c2c(cc3c1OCO3)-c1ncc3cc4c(cc3c1C2)OCO4`, the GI50 with OVCAR-8 ovarian is 0.111 µM; with EKVX NSCLC, 19 µM; in the experiment with BT-549 breast it was 0.211 µM; in the experiment on SK-MEL-2 melanoma, above 8.58 µM; in the experiment with NCI-H460 lung, 0.108 µM; in the experiment on SN12C renal, 0.0414 µM. Also, the TGI was 10.7 µM in the experiment with OVCAR-8 ovarian; above 100 µM in the experiment with EKVX NSCLC; 43.6 µM in the experiment with SNB-19 CNS; 72.2 µM with NCI-H522 lung; above 100 µM in the experiment on BT-549 breast; above 87.1 µM in the experiment with SK-MEL-2 melanoma. The figures for the TGI in the experiment with NCI-H460 lung, in the experiment with SN12C renal and in the experiment on SF-295 CNS were above 47.1 µM, above 100 µM and above 34 µM, respectively.
In the case of `CCN(CC)C(=O)N[C@@H](CC(C)C)C(=O)NC`, the TGI in the experiment on OVCAR-8 ovarian, in the experiment on EKVX NSCLC, in the experiment with SNB-19 CNS, in the experiment on NCI-H522 lung, in the experiment on BT-549 breast and with SK-MEL-2 melanoma was above 100 µM in each case. The TGI in the experiment with NCI-H460 lung, in the experiment with SN12C renal, in the experiment with A498 renal and in the experiment with SF-295 CNS was above 100 µM each time.
Turning to `CCCCCCCC(=O)NC(C)(C)C(=O)NCC(=O)NC(CC(C)C)C(=O)NC(C)(C)C(=O)NCC(=O)NCC(=O)NC(CC(C)C)C(=O)NC(C)(C)C(=O)NCC(=O)NC(C(=O)NC(CO)CC(C)C)C(C)CC` (centres undefined), the TGI with OVCAR-8 ovarian came to 7.62 µM; in the experiment with EKVX NSCLC it was 6.91 µM; in the experiment with SNB-19 CNS it was 6.83 µM; in the experiment with NCI-H522 lung, 7.26 µM; with BT-549 breast it was 6.87 µM; in the experiment on SK-MEL-2 melanoma, 5.85 µM. Also, the values for the TGI in the experiment on NCI-H460 lung, in the experiment with SN12C renal and in the experiment with SF-295 CNS were 8.11 µM, 7.7 µM and 7.76 µM, respectively.
With `Clc1ccc(Cc2nc3cc4ccccc4cc3[nH]2)cc1Cl`, the TGI in the experiment on OVCAR-8 ovarian worked out at 49.8 µM; in the experiment with EKVX NSCLC, 78.2 µM; with SNB-19 CNS, 46 µM; in the experiment on NCI-H522 lung, 29 µM; in the experiment with BT-549 breast, 37.2 µM; in the experiment on SK-MEL-2 melanoma it was 34.4 µM. The TGI is above 100 µM in the experiment on NCI-H460 lung, 52.2 µM in the experiment with SN12C renal and 27.7 µM in the experiment with A498 renal.
`O=C(NCC(O)COc1ccccc1)c1ccccc1O` (centres undefined): the TGI in the experiment with OVCAR-8 ovarian, in the experiment with EKVX NSCLC, in the experiment with SNB-19 CNS, in the experiment with NCI-H522 lung, in the experiment on BT-549 breast and with SK-MEL-2 melanoma was above 100 µM each time. Besides, the TGI in the experiment on SN12C renal, with A498 renal and with SF-295 CNS was above 100 µM in each case.
Consider `C(/C=C(\Nc1ccccc1)c1ccc2ccccc2c1)=Nc1ccccc1`, for which the TGI in the experiment on OVCAR-8 ovarian turned out to be 14.1 µM; in the experiment on SNB-19 CNS, 8.24 µM; with NCI-H522 lung, 19 µM; in the experiment on BT-549 breast, 4.6 µM; in the experiment with SK-MEL-2 melanoma, 30.9 µM; in the experiment with NCI-H460 lung it was 11.9 µM. Further, the TGI in the experiment on SN12C renal is 5.15 µM; in the experiment with A498 renal it was 25.8 µM; with SF-295 CNS it was 4.28 µM.
